Test results from patent publication US20090286790A1, “ORGANIC COMPOUNDS” (priority 2006, published 2009).

Biological target: T1, CETP (Homo sapiens, UniProt P11597)
T1 construct: Human plasma (50 uL), assay buffer (35 uL) and test compound; tissue New Drug Development Research Center, Inc; host or cells: human EDTA plasma from healthy men
T1 sequence (P11597 18-493): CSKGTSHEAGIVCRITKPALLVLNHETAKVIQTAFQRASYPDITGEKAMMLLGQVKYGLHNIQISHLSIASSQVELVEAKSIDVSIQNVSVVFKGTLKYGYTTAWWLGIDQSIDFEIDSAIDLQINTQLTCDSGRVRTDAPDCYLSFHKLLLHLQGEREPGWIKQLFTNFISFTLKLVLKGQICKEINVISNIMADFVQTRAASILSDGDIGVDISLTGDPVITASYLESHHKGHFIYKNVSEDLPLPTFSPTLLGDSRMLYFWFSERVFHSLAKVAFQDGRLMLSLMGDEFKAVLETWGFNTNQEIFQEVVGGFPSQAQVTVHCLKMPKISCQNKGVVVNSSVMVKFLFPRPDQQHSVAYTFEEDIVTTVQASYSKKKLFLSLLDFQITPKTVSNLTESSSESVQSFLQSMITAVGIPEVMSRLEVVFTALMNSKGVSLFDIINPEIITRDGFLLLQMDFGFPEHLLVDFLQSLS
Test: In vitro CETP activity assay in human plasma
Type: biochemical
Settings: Table 1 Inhibitory Activity of Compounds
Description: The cDNA of human pro-apoAI (NCBI accession number: NM_000039) is cloned from human liver Quick-Clone™ cDNA (Clontech, CA) and inserted to a pET28a vector (Novagen, Germany) for bacterial expression. Expressed protein as a fusion protein with 6×His-tag at N-terminus in BL-21 Gold (DE3) (Strategene, CA) is purified using HiTrap Chelating (GE Healthcare, CT).
Pro-apoAI containing microemulsion as a donor particle is prepared following previous reports (J. Biol. Chem., 280:14918-22). Glyceryl trioleate (62.5 ng, Sigma, Mo.), 3-sn-phosphatidylcholine (583 ng, Wako Pure Chemical Industries, Japan), and cholesteryl BODIPY® FL C12 (250 ng, Invitrogen, CA) are dissolved in 1 mL of chloroform. The solution is evaporated, then residual solvent is removed in vacuum for more than 1 hr. […]
Human EDTA plasma samples from healthy men are purchased from New Drug Development Research Center, Inc. Donor solution is prepared by a dilution of donor microemulsion with assay buffer. […] Fluorescence intensities are measured every 30 min at 37° C. with excitation wave length of 485 nm and emission wavelength of 535 nm. The CETP activity (Fl/min) is defined as the changes of fluorescence intensity from 30 to 90 min.

Row | Compound | IC50
1 | CC[C@@H]1C[C@H](N(Cc2cc(C(F)(F)F)cc(C(F)(F)F)c2)c2ncc(Br)cn2)C[C@H](Cc2ccccc2)N1C(=O)[C@H]1CC[C@@H](OC(C)=O)CC1 (relative stereo) [Example 17, acetic acid 4-{2-benzyl-4-[(3,5-bis-trifluoromethyl-benzyl)-(5-bromo-pyrimidin-2-yl)-amino]-6-ethyl-piperidine-1-carbonyl}-cyclohexyl Ester] | 0.314 µM
2 | CC[C@@H]1C[C@H](N(Cc2cc(C(F)(F)F)cc(C(F)(F)F)c2)c2ncc(Br)cn2)C[C@H](Cc2ccccc2)N1C(=O)[C@H]1CC[C@@H](O)CC1 (relative stereo) [Example 18, {2-benzyl-4-[(3,5-bis-trifluoromethyl-benzyl)-(5-bromo-pyrimidin-2-yl)-amino]-6-ethyl-piperidin-1-yl}-(4-hydroxy-cyclohexyl)-methanone] | 0.357 µM
